This test deals with T1, GAL4-PPARγ chimeric receptor (ligand-binding domain of human PPARγ) (Homo sapiens, UniProt P37231).
T1 construct: expressed in transfected cells; host or cells: COS-7 (monkey kidney)
As to the kind of experiment: Measurement of PPARγ activation effect/modulator activity (GAL4-PPARγ luciferase reporter assay in COS-7 cells). As to conditions: for Emax: COS-7, maximum luciferase activity, rosiglitazone positive control = 100%, DMSO control = 0%; for EC50: COS-7 cells transfected with pM-PPARγ and pFR-Luc, concentration giving Emax/2. The test is classed as cell-based. How it is done: A test was carried out according to the reporter assay method with reference to a report by Kliewer et al. (Journal of Biological Chemistry, 1995, Vol. 270 (22), p. 12953-12956) as a method for measuring the ability of a compound to activate PPARγ (hereinafter PPARγ activation effect/modulator activity). Commercially available reagents and kits were used according to the attached instructions. The details will be shown below.
The ligand-binding domain of human PPARγ (corresponding to about 300 amino acids at the carboxy end) was bound to the DNA-binding domain of the yeast transcription factor GAL4 (corresponding to 147 amino acids at the amino end) with reference to the report by Kliewer et al. to prepare a gene expressing a GAL4-PPARγ receptor.
The plasmid pM-PPARγ obtained by the above operation includes the nucleotide sequence represented by SEQ ID NO: 4 of the Sequence Listing and encodes an amino acid sequence represented by SEQ ID NO: 5 of the Sequence Listing containing amino acids 1 to 147 of the yeast transcription factor GAL4 at the amino end and containing amino acids 175 to 475 of human PPARγ and a stop codon at the carboxy end. The plasmid is a gene that can express a GAL4-PPARγ chimeric receptor in mammalian cells.
The previously acquired plasmid pM-PPARγ and the plasmid pFR-Luc purchased from Stratagene Cloning Systems, Inc. were dissolved in deionised water at a concentration of 1 mg/mL each.
The monkey kidney-derived cell line COS-7 (American Type Culture Collection CRL-1651) was seeded into a 75 cm^2 culture flask and cultured using Dulbecco's modified Eagle's medium containing 10% fetal bovine serum (hereinafter medium) under the conditions of 37° C. and 5% carbon dioxide gas until an approximately 80% confluent state was obtained.
COS-7 cells were transfected with 4.8 micrograms per flask of the plasmid pM-PPARγ and 19.2 μg per flask of the plasmid pFR-Luc using Lipofectamine 2000 transfection reagent (manufactured by Invitrogen Corporation), and the cells were cultured overnight.
On the following day, the cells were harvested by trypsin treatment, suspended in 75 mL of phenol red-free Dulbecco's modified Eagle's medium containing 10% fetal bovine serum, seeded into a white 96-well plate (manufactured by Costar) using the medium in a volume of 95 μL per well, and cultured overnight.
The test compound was dissolved in dimethyl sulfoxide at a concentration of 4 mM. The solution was serially diluted 3.3-fold with dimethyl sulfoxide to prepare solutions of the compound at concentrations up to 400 nM. Dimethyl sulfoxide was prepared for the control group. Rosiglitazone dissolved in dimethyl sulfoxide at a concentration of 4 mM was prepared for the positive control group. They were diluted 20-fold with the medium, and 5 μL of the dilution was added to the wells in which the cells were grown. The concentrations of the test compound treating the cells ranged from 10 μM to 1 nM. After the addition, the cells were cultured overnight.
On the following day, the medium was removed, and Luc Lite (manufactured by PerkinElmer Inc.) was prepared according to the attached document and added at 50 microliters per well. The plate with cells in the Luc Lite was stirred for about 30 minutes. The amount of luminescence in each well was measured as luciferase activity using Analyst (Molecular Devices) for 0.5 second. A dose-dependent curve was drawn.

T1 sequence (P37231 with tags, fused parts or gaps): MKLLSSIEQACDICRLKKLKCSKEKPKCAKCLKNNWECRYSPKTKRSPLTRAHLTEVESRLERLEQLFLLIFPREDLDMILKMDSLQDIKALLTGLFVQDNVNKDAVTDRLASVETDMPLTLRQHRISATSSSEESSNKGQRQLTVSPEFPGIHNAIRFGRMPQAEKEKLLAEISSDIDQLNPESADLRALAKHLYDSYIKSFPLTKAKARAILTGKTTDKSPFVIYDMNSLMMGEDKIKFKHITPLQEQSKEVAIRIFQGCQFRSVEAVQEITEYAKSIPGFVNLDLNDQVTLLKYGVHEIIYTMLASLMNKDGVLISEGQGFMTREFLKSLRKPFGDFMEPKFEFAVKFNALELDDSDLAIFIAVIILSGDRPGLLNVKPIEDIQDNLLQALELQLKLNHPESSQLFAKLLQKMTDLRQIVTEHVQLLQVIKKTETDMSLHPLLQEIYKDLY

In the case of `Cc1cc(F)cnc1Oc1ccc2nc(COc3cccc(C(=O)O)c3)n(C)c2c1` [Reference Example 8, 3-({6-[(5-Fluoro-3-methylpyridin-2-yl)oxy]-1-methyl-1H-benzimidazol-2-yl}methoxy)benzoic acid], the Emax came out at 100% and a half-maximal response (EC50) required 100000 pM.
The corresponding values for `Cc1cnc(Oc2ccc3nc(COc4cccc(C(=O)O)c4)n(C)c3c2)c(F)c1` [Reference Example 9, 3-({6-[(3-Fluoro-5-methylpyridin-2-yl)oxy]-1-methyl-1H-benzimidazol-2-yl}methoxy)benzoic acid] are 74% and 43000 pM.
The like results for `CCc1cnc(Oc2ccc3nc(COc4cccc(C(=O)O)c4)n(C)c3c2)c(C)c1` [Reference Example 11, 3-({6-[(5-Ethyl-3-methylpyridin-2-yl)oxy]-1-methyl-1H-benzimidazol-2-yl}methoxy)benzoic acid] were, in that order, 82% and 260000 pM.
The like results for `CCc1cc(C)cnc1Oc1ccc2nc(COc3cccc(C(=O)O)c3)n(C)c2c1` [Reference Example 12, 3-({6-[(3-Ethyl-5-methylpyridin-2-yl)oxy]-1-methyl-1H-benzimidazol-2-yl}methoxy)benzoic acid] were, in that order, 83% and 71000 pM.
In turn, `COc1c(C)cnc(Oc2ccc3nc(COc4cccc(C(=O)O)c4)n(C)c3c2)c1C` [Reference Example 14, 3-({6-[(4-Methoxy-3,5-dimethylpyridin-2-yl)oxy]-1-methyl-1H-benzimidazol-2-yl}methoxy)benzoic acid] yielded an Emax of 67% and a concentration for a half-maximal effect (EC50) of 69000 pM.
In the case of `Cc1cc(C)c(Oc2ccc3nc(COc4cccc(C(=O)O)c4)n(C)c3c2)nc1C` [Reference Example 15, 3-({1-Methyl-6-[(3,5,6-trimethylpyridin-2-yl)oxy]-1H-benzimidazol-2-yl}methoxy)benzoic acid], the Emax came to 94% and the response was half-maximal at 120000 pM (EC50).

The record behind these values is patent US20130204009A1, “PROCESS FOR PREPARING BENZOIC ACID ESTERS” (Daiichi Sankyo Company, Limited, priority 2010, published 2013).
